Values belong to the molecule of their own block, whether it stands above or below them.
How the values were obtained:
Format in all cases: functional
U-251 = experiment: Growth inhibition human U251 of cells after 48 hrs by SRB protein assay; details: U-251, 48 h; for TGI: read-out: Log TGI (converted)
OVCAR-5 = experiment: Growth inhibition of human OVCAR5 cells after 48 hrs by SRB protein assay; details: OVCAR-5, 48 h; for TGI: read-out: Log TGI (converted)
NCI-H23 = experiment: Growth inhibition of human NCI-H23 cells after 48 hrs by SRB protein assay; details: NCI-H23, 48 h; for TGI: read-out: Log TGI (converted)
SF-268 = experiment: Growth inhibition of human SF268 cells after 48 hrs by SRB protein assay; details: SF-268, 48 h; for TGI: read-out: Log TGI (converted)
HOP-92 = experiment: Growth inhibition of human HOP92 cells after 48 hrs by SRB protein assay; details: HOP-92, 48 h; for TGI: read-out: Log TGI (converted)
UO-31 = experiment: Growth inhibition of human UO31 cells after 48 hrs by SRB protein assay; details: UO-31, 48 h; for TGI: read-out: Log TGI (converted)
DU-145 = experiment: Growth inhibition of human DU145 cells after 48 hrs by SRB protein assay; details: DU-145, 48 h; for TGI: read-out: Log TGI (converted)
SW-620 = experiment: Growth inhibition of human SW620 cells after 48 hrs by SRB protein assay; details: SW-620, 48 h; for TGI: read-out: Log TGI (converted)
HT-29 = experiment: Growth inhibition of human HT29 cells after 48 hrs by SRB protein assay; details: HT-29, 48 h; for TGI: read-out: Log TGI (converted)
HOP-62 = experiment: Growth inhibition of human HOP62 cells after 48 hrs by SRB protein assay; details: HOP-62, 48 h; for TGI: read-out: Log TGI (converted)
SK-OV-3 = experiment: Growth inhibition of human SK-OV-3 cells after 48 hrs by SRB protein assay; details: SK-OV-3, 48 h; for TGI: read-out: Log TGI (converted)
MOLT-4 = experiment: Growth inhibition of human MOLT4 cells after 48 hrs by SRB protein assay; details: MOLT-4, 48 h; for TGI: read-out: Log TGI (converted)
A549 = experiment: Growth inhibition of human A549 cells after 48 hrs by SRB protein assay; details: A549, 48 h; for TGI: read-out: Log TGI (converted)
BT-549 = experiment: Growth inhibition of human BT549 cells after 48 hrs by SRB protein assay; details: BT-549, 48 h; for TGI: read-out: Log TGI (converted)
T47D = experiment: Growth inhibition of human T47D cells after 48 hrs by SRB protein assay; details: for TGI: read-out: Log TGI (converted)
SF-539 = experiment: Growth inhibition of human SF539 cells after 48 hrs by SRB protein assay; details: SF-539, 48 h; for TGI: read-out: Log TGI (converted)
EKVX = experiment: Growth inhibition of human EKVX cells after 48 hrs by SRB protein assay; details: for TGI: read-out: Log TGI (converted)
Hs-578T = experiment: Growth inhibition of human HS578T cells after 48 hrs by SRB protein assay; details: for TGI: read-out: Log TGI (converted)
COLO 205 = experiment: Growth inhibition of human COLO205 cells after 48 hrs by SRB protein assay; details: COLO 205, 48 h; for TGI: read-out: Log TGI (converted)
CCRF-CEM = experiment: Growth inhibition of human CCRF-CEM cells after 48 hrs by SRB protein assay; details: for TGI: read-out: Log TGI (converted)
SK-MEL-2 = experiment: Growth inhibition of human SK-MEL-2 cells after 48 hrs by SRB protein assay; details: SK-MEL-2, 48 h; for TGI: read-out: Log TGI (converted)
HCT-15 = experiment: Growth inhibition of human HCT15 cells after 48 hrs by SRB protein assay; details: HCT-15, 48 h; for TGI: read-out: Log TGI (converted)
KM12 = experiment: Growth inhibition of human KM12 cells after 48 hrs by SRB protein assay; details: KM12, 48 h; for TGI: read-out: Log TGI (converted)
NCI-H322M = experiment: Growth inhibition of human NCI-H322M cells after 48 hrs by SRB protein assay; details: for TGI: read-out: Log TGI (converted)
RPMI-8226 = experiment: Growth inhibition of human RPMI8226 cells after 48 hrs by SRB protein assay; details: RPMI-8226, 48 h; for TGI: read-out: Log TGI (converted)
HCT-116 = experiment: Growth inhibition of human HCT116 cells after 48 hrs by SRB protein assay; details: HCT-116, 48 h; for TGI: read-out: Log TGI (converted)
RXF 393 = experiment: Growth inhibition of human RXF393 cells after 48 hrs by SRB protein assay; details: RXF 393, 48 h; for TGI: read-out: Log TGI (converted)
UACC-62 = experiment: Growth inhibition of human UACC62 cells after 48 hrs by SRB protein assay; details: UACC-62, 48 h; for TGI: read-out: Log TGI (converted)
SK-MEL-5 = experiment: Growth inhibition of human SK-MEL-5 cells after 48 hrs by SRB protein assay; details: SK-MEL-5, 48 h; for TGI: read-out: Log TGI (converted)
OVCAR-8 = experiment: Growth inhibition of human OVCAR8 cells after 48 hrs by SRB protein assay; details: OVCAR-8, 48 h; for TGI: read-out: Log TGI (converted)
NCI-H522 = experiment: Growth inhibition of human NCI-H522 cells after 48 hrs by SRB protein assay; details: NCI-H522, 48 h; for TGI: read-out: Log TGI (converted)
MCF7 = experiment: Growth inhibition of human MCF7 cells after 48 hrs by SRB protein assay; details: MCF7, 48 h; for TGI: read-out: Log TGI (converted)
CAKI-1 = experiment: Growth inhibition of human CAKI1 cells after 48 hrs by SRB protein assay; details: CAKI-1, 48 h; for TGI: read-out: Log TGI (converted)
MDA-MB-231 = experiment: Growth inhibition of MDA-MB-231 cells after 48 hrs by SRB protein assay; details: Homo sapiens, MDA-MB-231, 48 h; for TGI: read-out: Log TGI (converted)
SF-295 = experiment: Growth inhibition of human SF295 cells after 48 hrs by SRB protein assay; details: SF-295, 48 h; for TGI: read-out: Log TGI (converted)
M14 = experiment: Growth inhibition of human M14 cells after 48 hrs by SRB protein assay; details: M14, 48 h; for TGI: read-out: Log TGI (converted)
ACHN = experiment: Growth inhibition of human ACHN cells after 48 hrs by SRB protein assay; details: for TGI: read-out: Log TGI (converted)
PC-3 = experiment: Growth inhibition of human PC3 cells after 48 hrs by SRB protein assay; details: PC-3, 48 h; for TGI: read-out: Log TGI (converted)
NCI-H460 = experiment: Growth inhibition of human NCI-H460 cells after 48 hrs by SRB protein assay; details: NCI-H460, 48 h; for TGI: read-out: Log TGI (converted)

GI50 (U-251): 21.4 µM
GI50 (OVCAR-5): 27.5 µM
GI50 (NCI-H23): 7.59 µM
GI50 (DU-145): 22.4 µM
GI50 (SW-620): 31.6 µM
GI50 (HT-29): 50.1 µM
GI50 (SK-OV-3): 52.5 µM
GI50 (MOLT-4): 4.17 µM
GI50 (A549): 10.7 µM
GI50 (BT-549): 13.5 µM
GI50 (T47D): 31.6 µM
GI50 (COLO 205): 43.7 µM
GI50 (CCRF-CEM): 12.3 µM
GI50 (SK-MEL-2): 26.3 µM
GI50 (HCT-15): 17.8 µM
GI50 (NCI-H322M): 4.37 µM
GI50 (RPMI-8226): 4.27 µM
GI50 (HCT-116): 10.5 µM
GI50 (SK-MEL-5): 7.08 µM
GI50 (OVCAR-8): 7.08 µM
GI50 (NCI-H522): 10.7 µM
GI50 (MCF7): 63.1 µM
GI50 (MDA-MB-231): 10.5 µM
GI50 (ACHN): 14.8 µM
GI50 (PC-3): < 0.01 µM
GI50 (NCI-H460): 57.5 µM
SMILES: O=C(Cc1csc2nc(-c3ccc(Br)cc3)cn12)N/N=C/c1ccc(O)cc1
TGI (U-251): > 100 µM
TGI (OVCAR-5): > 100 µM
TGI (NCI-H23): 32.4 µM
GI50 (SF-268): > 100 µM
TGI (SF-268): > 100 µM
GI50 (HOP-92): 19.1 µM
TGI (HOP-92): 69.2 µM
GI50 (UO-31): 26.3 µM
TGI (UO-31): > 100 µM
TGI (DU-145): 87.1 µM
TGI (SW-620): > 100 µM
TGI (HT-29): > 100 µM
GI50 (HOP-62): 18.2 µM
TGI (HOP-62): 53.7 µM
TGI (SK-OV-3): > 100 µM
TGI (MOLT-4): 10 µM
TGI (A549): 33.9 µM
TGI (BT-549): 56.2 µM
TGI (T47D): > 100 µM
GI50 (SF-539): 18.2 µM
TGI (SF-539): 46.8 µM
GI50 (EKVX): 11.5 µM
TGI (EKVX): 66.1 µM
GI50 (Hs-578T): 23.4 µM
TGI (Hs-578T): 93.3 µM
TGI (COLO 205): > 100 µM
TGI (CCRF-CEM): 79.4 µM
TGI (SK-MEL-2): 95.5 µM
TGI (HCT-15): 61.7 µM
GI50 (KM12): 17.8 µM
TGI (KM12): 75.9 µM
TGI (NCI-H322M): 34.7 µM
TGI (RPMI-8226): 39.8 µM
TGI (HCT-116): 24 µM
TGI (RXF 393): 40.7 µM
GI50 (UACC-62): 9.12 µM
TGI (UACC-62): 23.4 µM
TGI (SK-MEL-5): 22.4 µM
TGI (OVCAR-8): 25.7 µM
TGI (NCI-H522): 34.7 µM
TGI (MCF7): > 100 µM
GI50 (CAKI-1): 14.8 µM
TGI (CAKI-1): 49 µM
TGI (MDA-MB-231): 43.7 µM
GI50 (SF-295): 12 µM
TGI (SF-295): 41.7 µM
GI50 (M14): 10.2 µM
TGI (M14): 23.4 µM
TGI (ACHN): 51.3 µM
TGI (PC-3): 23.4 µM
TGI (NCI-H460): > 100 µM

GI50 (U-251): 20.4 µM
GI50 (OVCAR-5): 28.8 µM
GI50 (NCI-H23): 25.7 µM
GI50 (DU-145): 26.3 µM
GI50 (SW-620): 22.9 µM
GI50 (HT-29): 40.7 µM
GI50 (SK-OV-3): > 100 µM
GI50 (MOLT-4): 1 µM
GI50 (A549): 17 µM
GI50 (BT-549): 25.7 µM
GI50 (T47D): > 100 µM
GI50 (COLO 205): 75.9 µM
GI50 (CCRF-CEM): 39.8 µM
GI50 (SK-MEL-2): 72.4 µM
GI50 (HCT-15): 25.7 µM
GI50 (NCI-H322M): 24.5 µM
GI50 (RPMI-8226): 79.4 µM
GI50 (HCT-116): 17 µM
GI50 (SK-MEL-5): 44.7 µM
GI50 (OVCAR-8): 18.6 µM
GI50 (NCI-H522): 25.7 µM
GI50 (MCF7): > 100 µM
GI50 (MDA-MB-231): 26.3 µM
GI50 (ACHN): 22.4 µM
GI50 (PC-3): 30.2 µM
GI50 (NCI-H460): > 100 µM
SMILES: O=C(Cc1csc2nc(-c3ccc(Br)cc3)cn12)N/N=C/c1ccc(Cl)cc1Cl
TGI (U-251): 44.7 µM
TGI (OVCAR-5): 67.6 µM
TGI (NCI-H23): 56.2 µM
GI50 (SF-268): > 100 µM
TGI (SF-268): > 100 µM
GI50 (HOP-92): 28.2 µM
TGI (HOP-92): > 100 µM
GI50 (UO-31): 72.4 µM
TGI (UO-31): > 100 µM
TGI (DU-145): > 100 µM
TGI (SW-620): 60.3 µM
TGI (HT-29): > 100 µM
GI50 (HOP-62): 16.6 µM
TGI (HOP-62): 34.7 µM
TGI (SK-OV-3): > 100 µM
TGI (MOLT-4): 26.3 µM
TGI (A549): 37.2 µM
TGI (BT-549): 77.6 µM
TGI (T47D): > 100 µM
GI50 (SF-539): 26.9 µM
TGI (SF-539): 63.1 µM
GI50 (EKVX): 31.6 µM
TGI (EKVX): > 100 µM
GI50 (Hs-578T): 31.6 µM
TGI (Hs-578T): 89.1 µM
TGI (COLO 205): > 100 µM
TGI (CCRF-CEM): > 100 µM
TGI (SK-MEL-2): > 100 µM
TGI (HCT-15): 72.4 µM
GI50 (KM12): 38 µM
TGI (KM12): > 100 µM
TGI (NCI-H322M): 69.2 µM
TGI (RPMI-8226): > 100 µM
TGI (HCT-116): 37.2 µM
GI50 (RXF 393): 28.2 µM
TGI (RXF 393): 85.1 µM
GI50 (UACC-62): 23.4 µM
TGI (UACC-62): 67.6 µM
TGI (SK-MEL-5): > 100 µM
TGI (OVCAR-8): 50.1 µM
TGI (NCI-H522): > 100 µM
TGI (MCF7): > 100 µM
GI50 (CAKI-1): 36.3 µM
TGI (CAKI-1): > 100 µM
TGI (MDA-MB-231): > 100 µM
GI50 (SF-295): 34.7 µM
TGI (SF-295): > 100 µM
GI50 (M14): 33.1 µM
TGI (M14): > 100 µM
TGI (ACHN): 53.7 µM
TGI (PC-3): > 100 µM
TGI (NCI-H460): > 100 µM
